Reference: US7230033B2, “Pest control compositions and methods for their use” (United States of America as represented by the Secretary of …, priority 2000, dated 2007)

Assays:
[1] = test system: nymphal Ixodes scapularis; assay: Treated-vial biocidal screening with 2% acetone solutions (Example 2), tick nymphs; format: in vivo; settings: treated vials sat 72 h; arthropods added for the final 24 h
Experimental: (§1) Samples of the compounds listed below were obtained as described in Example 1, and screened for biocidal activities against nymphal Ixodes scapularis. In this example, 2% acetone solutions (wt/vol) of the compounds were applied to inner surfaces of 2-dram friction cap vials. Vials and caps were treated then allowed to dry for a minimum of 4 hours before placing 10 nymphs in each container. These same vials were used to challenge additional nymphs and adult I. scapularis ticks and adult Xenopsylla cheopis fleas through five weeks to observe any possible residual activity.
(§2) Numbers in parentheses refer to length of treatment in terms of hours (h) or weeks (wk). Data is presented in terms of number killed/number tested. For test periods longer than 24 hours, the treated vials were allowed to sit for the stated period after drying (72 h, 4 wk, or 5 wk) and each group of arthropods was added to the vials for the final 24 h of the test period.

[2] = test system: adult I. scapularis ticks; assay: Treated-vial biocidal screening with 2% acetone solutions (Example 2), adult ticks, residual; format: in vivo, Ixodes scapularis; settings: treated vials sat 4 wk; arthropods added for the final 24 h
Experimental: as §1, §2

[3] = test system: adult Xenopsylla cheopis fleas; assay: Treated-vial biocidal screening with 2% acetone solutions (Example 2), adult fleas, residual; format: in vivo; settings: treated vials sat 5 wk; arthropods added for the final 24 h
Experimental: as §1, §2

I. scapularis nymphs = assay: Tick bioassay, treated 2-dram vials, probit analysis; format: in vivo, Ixodes scapularis; settings: for Slope: probit; for LC50 (1 h) / LC50 (24 h) / LC90 (1 hr) / LC90 (24 h): Ixodes scapularis nymphal ticks, alone, or 1:1 with carvacrol (in parenthesis)
Source text: A control treated with acetone only was run with each series.
For each time point, if ticks and fleas were incapable of movement, maintaining normal posture, leg coordination, ability to right themselves, or any signs of life, they were considered moribund or dead.

X. cheopis adults = assay: Flea bioassay, treated 2-dram vials, probit analysis; format: in vivo, Xenopsylla cheopis; settings: 24 h exposure; for Slope: probit
Experimental: Med. […] A control treated with acetone only was run with each series. Tick and flea susceptibility was evaluated using a modification of the disposable pipette method of Barnard et al. (J. Econ. Entomol., 74:466-69, 1981) and Maupin and […]. Med. […] The inner surface of 2-dram friction cap vials were treated with the compound/acetone solution, or acetone only as a control, and left to air-dry overnight (see also, […] et al., J. Med. […] Three to 4 holes were made in the plastic cap to allow for air exchange. Nymphal ticks and adult fleas were then placed directly into the vials using forceps. […] For each time point, if ticks and fleas were incapable of movement, maintaining normal posture, leg coordination, ability to right themselves, or any signs of life, they were considered moribund or dead.

Ae. aegypti adults = assay: Adult mosquito bottle bioassay; format: in vivo, Aedes aegypti; settings: for LC50 / LC90 / Slope: 24 h exposure; for LC50 / LC90: NE = not effective at concentrations tested; for Slope: probit; for LC50 (15 min) / LC50 (24 h) / LC90 (15 min) / LC90 (24 h): Aedes aegypti adult mosquitoes, alone, or 1:1 with carvacrol (in parenthesis)
Experimental: (§3) Adult mosquitoes were tested using the bottle bioassay method of Brogden and McAllister (J. Am. Mosq. Control Assoc., 14:159–64, 1998) with minor modifications. Natural product extracts were two-fold serially diluted for a total of 8 concentrations ranging from 0.002% to 0.25% in 1.5 ml of acetone. Individual dilutions were added to 250 ml Wheaton glass bottles and capped. Bottles were manipulated to evenly coat all inner surfaces. The caps were removed and bottles were allowed to air-dry overnight. Once bottles were completely dry, 10–50 (in some tests 25–50) adult mosquitoes were aspirated into the bottles. Mosquitoes were held in the bottles for 24 h at 23° C. and 85% RH. Morbidity and mortality were recorded at 15, 30, 45, and 60 min and 24 hour intervals. One bottle for each replicate was treated with acetone only and served as a control. The dose-mortality data was evaluated with probit analysis, using the LdP Line software, to determine LC50 and LC90 values.
Carvacrol was combined with compound 7, 9, or 10 at a 1:1 ratio (7.5 μl of carvacrol:7.5 μl of compound 7, 9, or 10 was added to 2,985 μl of acetone for a 0.5% solution, from which serial dilutions were made), and tested as previously described against nymphal ticks and adult and larval mosquitoes.

Ixodes scapularis nymphs = assay: Residual activity, aged treated vials, ticks; format: in vivo; settings: for LC90, residual activity: NE = not effective
Experimental: (§4) Briefly, groups of 10 nymphal I. scapularis and X. cheopis fleas were used in all tests (more than a total of 5,240 nymphs and 4,860 fleas were exposed to the compounds). The inner surface of 2-dram friction cap vials were treated with the compound/acetone solution, or acetone only as a control, and left to air-dry overnight (see also, Panella et al., J. Med. Entomol., 42(3):352-358, 2005. Three to 4 holes were made in the plastic cap to allow for air exchange. Nymphal ticks and adult fleas were then placed directly into the vials using forceps. Vials containing ticks or fleas were placed in desiccators for 24 h at 21° C. and 90% RH. Morbidity and mortality was recorded at 1, 2, 4, 8, and 24 h after initial exposure.

Aedes aegypti adults = assay: Residual activity, aged treated bottles, mosquitoes; format: in vivo
Experimental: as §3

[4] = test system: ticks, fleas, and mosquitoes; assay: Residual activity, general statements (Examples 9, 17); format: in vivo; settings: ticks
[5] = test system: Xenopsylla cheopis adults; assay: Residual activity, aged treated vials, fleas; format: in vivo
Experimental: as §4

[6] = test system: fourth-instar Aedes aegypti larvae; assay: Larval mosquito bioassay; format: in vivo; settings: Aedes aegypti larval mosquitoes, concentration of the 1 ml added to 150 ml water
Experimental: Individual groups of 10 fourth-instar Aedes aegypti larvae were contained in 150 ml of water and exposed to […] of essential oils prepared by 2-fold serial dilutions ranging from 0.06%–5.0% in 1 ml of acetone. A control group of larvae were exposed to 1 ml of acetone only.
It is important to note that larval mosquitoes are tested in their natural environment, i.e., in water. The particular assays used herein involved groups of 10 larval mosquitoes in 150 ml of water. The weight percentages reported for lethal concentration for larval mosquitoes are the weight percentages added to the 150 ml water (as opposed to the final percentage of the tested compound(s) in the 150 ml water). As one of skill in the art will appreciate, test compound(s) added to a volume of water (such as, 150 ml) can be dramatically diluted depending upon the water solubility of the tested compound. […] If the tested compound is an oil (such as, carvacrol, nootkatone, or 13-hydroxy-valencene), it most likely floats on the surface of the water.

[7] = test system: Ixodes scapularis nymphal ticks; assay: Tick repellency bioassay; format: in vivo
Source text: One-hundred (100) μl of test compound was pipetted onto a cotton-tipped applicator mounted to the bottom center of a 1 dram glass shell vial using non-toxic modeling clay. A total of 8 concentrations were screened with doses ranging from 0.04–5.0%. Applicators treated with acetone only served as controls. A line was drawn around the perimeter of the vial immediate to the base of the treated cotton portion of the applicator. The area above the line was designated the “repellent zone”. The vial was allowed to air-dry 1 h before a single tick was introduced. Vials were covered with a single piece of mesh and fitted with a hollowed-out plastic cap to cover the opening of the vial; this prevented the tick from escaping but allowed for air exchange. Vials were breathed upon by investigators at 1 min intervals and a hand was placed over the test vials to provide stimuli for ticks to pass into the repellent zone. […] If the tick crossed over and remained in the “repellent zone” for ≧5 sec, the tick was deemed non-repelled by the test compound. Each test was replicated 10 times using a new tick for each test. Repellent activity was determined at 1, 2, 3, and 4 h after treatment. Probit analysis was used to determine repellent efficacy (RD50 and RD95).

[8] = 24 h exposure, NE = not effective at concentrations tested
[9] = NE = not effective at concentrations tested
[10] = 2 weeks after treatment, NE = not effective
[11] = 1 h after compound applied to applicator, listed as Nootkatone (Compound 9)
[12] = 4 h after compound applied to applicator, listed as Nootkatone (Compound 9)
[13] = 1 h after compound applied to applicator
[14] = 4 h after compound applied to applicator

## C=C(C)[C@@H]1CCC2=CCC[C@@H](C)[C@]2(C)C1 [Compound 5, Valencene]
[1]
  I. scapularis nymphs (72 h), number killed/number tested: 0/5
[2]
  I. scapularis adults (4 wk), number killed/number tested: 0/5
[3]
  X. cheopis adults (5 wk), number killed/number tested: 0/5
I. scapularis nymphs; 24 h exposure
  Slope: 0.684
X. cheopis adults
  Slope: 6.925
Ae. aegypti adults
  LC50: 0.015 percent concentration, wt:vol
  LC90: 0.037 percent concentration, wt:vol
  Slope: 3.199

## C=C(C)C1CC=C2C=CCC(C)C2(C)C1 (stereo not shown) [Compound 6, Nootkatene]
[1]
  I. scapularis nymphs (72 h), number killed/number tested: 4/5
[2]
  I. scapularis adults (4 wk), number killed/number tested: 0/5
[3]
  X. cheopis adults (5 wk), number killed/number tested: 0/5
I. scapularis nymphs; [8]
  LC50: 0.011 percent concentration, wt:vol
  LC90: 0.06 percent concentration, wt:vol
I. scapularis nymphs; 24 h exposure
  Slope: 1.763
X. cheopis adults; [9]
  LC50: 0.017 percent concentration, wt:vol
X. cheopis adults
  Slope: 2.022
Ae. aegypti adults
  LC50: 0.027 percent concentration, wt:vol
  Slope: 3.696
Ixodes scapularis nymphs; 1 week after treatment
  Slope, residual activity: 0.533
Aedes aegypti adults; 1 week after treatment
  LC90, residual activity: 0.659 percent concentration, wt:vol
  Slope, residual activity: 1.833
[4]
  residual activity: did not demonstrate any residual activity after one week

## C=C(C)[C@@H]1CCC2=CC(=O)C[C@@H](C)[C@]2(C)C1 [Compound 9, Nootkatone]
I. scapularis nymphs; [8]
  LC90: 0.0087 percent concentration, wt:vol
I. scapularis nymphs; 24 h exposure
  Slope: 3.061
I. scapularis nymphs
  LC50 (1 h): 0.016 % (wt:vol)
  LC50 (24 h): 0.0033 % (wt:vol)
  LC90 (1 hr): 0.331 % (wt:vol)
  LC90 (24 h): 0.0087 % (wt:vol)
I. scapularis nymphs; listed as compound 9
  LC50 (1 h): 0.016 % (wt:vol)
X. cheopis adults; [9]
  LC90: 0.018 percent concentration, wt:vol
X. cheopis adults
  Slope: 2.9
Ae. aegypti adults
  LC90: 0.021 percent concentration, wt:vol
  Slope: 2.845
  LC50 (15 min): 0.136 % (wt:vol)
  LC50 (24 h): 0.0075 % (wt:vol)
  LC90 (15 min): 0.453 % (wt:vol)
  LC90 (24 h): 0.021 % (wt:vol)
Ixodes scapularis nymphs; 1 week after treatment
  Slope, residual activity: 1.304
  LC90, residual activity: 0.08 percent concentration, wt:vol
Ixodes scapularis nymphs; 2 weeks after treatment
  Slope, residual activity: 2.649
  LC90, residual activity: 0.027 percent concentration, wt:vol
[5]; 1 week after treatment
  Slope, residual activity: 1.633
[5]; 2 weeks after treatment
  Slope, residual activity: 2.571
[5]; 4 weeks after treatment
  Slope, residual activity: 3.135
Aedes aegypti adults; 1 week after treatment
  LC90, residual activity: 0.018 percent concentration, wt:vol
  Slope, residual activity: 4.336
Aedes aegypti adults; 2 weeks after treatment
  Slope, residual activity: 4.014
Aedes aegypti adults; [10]
  LC90, residual activity: 0.0088 percent concentration, wt:vol
Aedes aegypti adults; 4 weeks after treatment
  Slope, residual activity: 4.169
[6]
  LC50 (1 h): 6.51 % (wt:vol)
  LC50 (24 h): 1.574 % (wt:vol)
  LC90 (1 hr): 22.644 % (wt:vol)
  LC90 (24 h): 2.757 % (wt:vol)
[7]; 1 h, listed as Nootkatone (Compound 9)
  Slope (±SEM): 1.326 (±0.345)
[7]; [11]
  RD50: 0.101 % (wt:vol)
  RD95: 1.758 % (wt:vol)
[7]; 4 h, listed as Nootkatone (Compound 9)
  Slope (±SEM): 1.406 (±0.299)
[7]; [12]
  RD50: 0.173 % (wt:vol)
  RD95: 2.561 % (wt:vol)
[4]
  residual activity: considerable biological activity through the four week time period

## C=C(CO)C1CCC2=CCC[C@@H](C)[C@]2(C)C1 (stereo partly shown) [Compound 10, 13-hydroxy-valencene]
I. scapularis nymphs; 24 h exposure
  Slope: 2.562
I. scapularis nymphs
  LC50 (1 h): 0.017 % (wt:vol)
  LC50 (24 h): 0.0054 % (wt:vol)
  LC90 (1 hr): 0.065 % (wt:vol)
  LC90 (24 h): 0.014 % (wt:vol)
X. cheopis adults
  Slope: 3.143
Ae. aegypti adults
  Slope: 2.094
  LC50 (15 min): 0.077 % (wt:vol)
  LC50 (24 h): 0.0034 % (wt:vol)
  LC90 (15 min): 0.373 % (wt:vol)
  LC90 (24 h): 0.014 % (wt:vol)
Ixodes scapularis nymphs; 1 week after treatment
  Slope, residual activity: 3.005
  LC90, residual activity: 0.019 percent concentration, wt:vol
Ixodes scapularis nymphs; 2 weeks after treatment
  Slope, residual activity: 1.781
  LC90, residual activity: 0.044 percent concentration, wt:vol
Ixodes scapularis nymphs; 4 weeks after treatment
  Slope, residual activity: 1.285
[5]; 1 week after treatment
  Slope, residual activity: 2.218
[5]; 2 weeks after treatment
  Slope, residual activity: 2.442
Aedes aegypti adults; 1 week after treatment
  LC90, residual activity: 0.058 percent concentration, wt:vol
  Slope, residual activity: 3.286
Aedes aegypti adults; 2 weeks after treatment
  Slope, residual activity: 6.932
Aedes aegypti adults; [10]
  LC90, residual activity: 0.021 percent concentration, wt:vol
Aedes aegypti adults; 4 weeks after treatment
  Slope, residual activity: 2.645
Aedes aegypti adults; 4 weeks after treatment, NE = not effective
  LC90, residual activity: 0.04 percent concentration, wt:vol
[6]
  LC50 (1 h): 5.132 % (wt:vol)
  LC50 (24 h): 0.975 % (wt:vol)
  LC90 (1 hr): 13.425 % (wt:vol)
  LC90 (24 h): 1.23 % (wt:vol)
[6]; listed as 13-hydroxy-valencene
  LC50 (24 h): 1.23 % (wt:vol)
[7]; 1 h
  Slope (±SEM): 1.332 (±0.313)
[7]; [13]
  RD50: 0.095 % (wt:vol)
  RD95: 1.637 % (wt:vol)
[7]; 4 h
  Slope (±SEM): 1.066 (±0.307)
[7]; [14]
  RD50: 0.114 % (wt:vol)
  RD95: 3.993 % (wt:vol)
[4]
  residual activity: considerable biological activity through the four week time period

## CC(C)=CCc1ccc(O)c(=O)cc1C(C)C [Compound 11, Nootkatin]
[1]
  I. scapularis nymphs (72 h), number killed/number tested: 0/5
[2]
  I. scapularis adults (4 wk), number killed/number tested: 0/5
[3]
  X. cheopis adults (5 wk), number killed/number tested: 0/5
Ae. aegypti adults
  Slope: 1.327
